Measurements published in patent US7892767B2, “Phosphospecific chemokine receptor antibodies” (Washington University in St. Louis, priority 2005, dated 2011).

Key:
Nf1+/+ astrocytes = test: Cell cycle analysis by flow cytometry, Nf1+/+ astrocytes; type: cell-based, mouse; conditions: CXCL12 0.1 μg/ml
Method: Cell Cycle Analysis. Ethanol fixed cells were washed in PBS and resuspended in PI staining solution containing 0.1% Triton-X-100, 0.2 mg/ml RNase A, and 20 ug/ml Propidium Iodide in PBS. The cells were incubated for 15 minutes at 37° C., in the dark. Flow Cytometry was performed on a FACSCalibur system (Becton Dickinson, San Jose, Calif.) Data were analyzed using CellQuest software (Becton Dickinson, San Jose, Calif.). Aggregates and debris were excluded from the analysis.
The basis for the in vitro growth effects of CXCL12 was further evaluated by cell cycle analysis of asynchronously growing cultures of Nf1+/+ and Nf1−/− astrocytes in the presence and absence of CXCL12. In agreement with measurements of cell number, 15% more Nf1−/− astrocytes were in the S+G2M fraction of the cell cycle compared to Nf1+/+ astrocytes (P<0.005, data not shown). This decrease in Nf1+/+ cell number in response to CXCL12 was the result of both a 6% decrease in proliferation (S+G2-M) and a 38+/−8% increase in apoptosis (sub-G0). The increase in Nf1−/− cell number was the result of a 27+/−12% decline in apoptosis alone (FIG. 9C).

[1] = test system: Daoy medulloblastoma cells; test: Viable cell number by trypan blue exclusion, Daoy cells; type: cell-based, human; conditions: CXCL12 1 μg/ml
Method: Brain tumor cell cultures. Cells were cultured in αMEM (Invitrogen, Carlsbad, Calif.) supplemented with 10% FCS (Biomedia, Foster City, Calif.) in the presence of penicillin streptomycin at 37° C. with 5% CO2.
Growth factor and drug treatment. Following serum-starvation for 24 hours, astrocytes, granule cells, U87 cells and Daoy cells, were treated with 1 μg/ml CXCL12 (PeproTech), […] AMD3465 (kind gift from Simon Fricker, AnorMED, Langley, BC, Canada) (200 μM Rolipram (Sigma), or 10 μM Forskolin (Sigma) as indicated.

CXCR4 = CXCR4 (Homo sapiens, UniProt P61073); test: Stimulated CXCR4 phosphorylation in LN428 GBM cells (western blot); type: cell-based; design: lysates from the glioblastoma cell line LN428, which is known to express high levels of CXCR4; endogenous in cells; host or cells: LN428 GBM cell line
CXCR4, sequence (P61073 whole entry): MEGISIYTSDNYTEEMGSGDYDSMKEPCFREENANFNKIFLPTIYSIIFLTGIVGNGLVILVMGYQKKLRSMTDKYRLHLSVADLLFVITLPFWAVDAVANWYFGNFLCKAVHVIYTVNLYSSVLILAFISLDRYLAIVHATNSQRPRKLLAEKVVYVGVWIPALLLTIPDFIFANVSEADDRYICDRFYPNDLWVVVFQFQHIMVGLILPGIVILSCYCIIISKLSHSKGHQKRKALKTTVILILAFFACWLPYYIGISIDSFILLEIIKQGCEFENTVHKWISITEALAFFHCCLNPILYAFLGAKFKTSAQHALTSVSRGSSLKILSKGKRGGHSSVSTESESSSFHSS
Method: Cell Culture, transfections and stimulation of CXCR4 phosphorylation. The U87 glioblastoma multiforme (GBM, grade IV) cell line was obtained from the American Type Culture Collection. The LN428 GBM cell line was a kind gift of Dr Erwin van Meir (Winship Cancer Center, Emory University, Atlanta, Ga.). U87 cells were grown in minimum essential a media supplemented with 10% fetal bovine serum ((FBS), Biomedia, Foster City, Calif.). LN428 cells were grown in DMEM (Fisher, Pittsburgh, Pa.) supplemented with 10% horse serum (Sigma). All cells were grown in the presence of penicillin-streptomycin. The coding sequence for human CXCR4 was obtained by high fidelity RT-PCR (Superscript III Platinum, Invitrogen), and cloned into the expression vector pMSCVneo (Clontech, Palo Alto, Calif.). Transfections were performed with 0.3 μg of plasmid DNA in 20 μl Lipofectamine (Invitrogen)/35 mm^2 tissue culture dish for 9 hours according to the manufacturer's instructions. Cells recovered in Optimem supplemented with 10% FBS. Transfected and non-transfected cells were placed in serum free media for 24 hours prior to treatment with agents to stimulate CXCR4 phosphorylation. Treatment was usually for 0 or 10 minutes with 1 μg/ml CXCL12 (Peprotech, Rocky Hill N.J.), 4 μM 4-Phorbol 12-myristate 13-acetate (PMA) or 10 nM EGF. In some experiments, CXCL12 was washed away and cells were incubated for an additional 20 minutes in serum free media alone.
Western Blot Analysis. Whole-cell extracts were obtained by lysing cells with lysis buffer (20 mM Tris pH 7.4, 137 mM NaCl, 10% Glycerol and 1% Triton X-100) supplemented with phosphatase inhibitor cocktail set II (Calbiochem, La Jolla, Calif.) and protease inhibitors PMSF (1 mM), leupeptin (0.005 mg/ml) and aprotonin (0.005 mg/ml). The proteins (50-75 μg) were resolved with 10% Bis-Tris gels (Invitrogen) and transferred onto the nitrocellulose membrane Hybond ECL (Amersham, Piscataway, N.J.) according to standard protocols. Polyclonal anti-CXCR4 antibody was used at a 1:500 dilution and P338-CXCR4 and P339-CXCR4 directed antibodies were used at 1:100 dilutions overnight at 4° C. This was followed by incubation with horseradish peroxidase-conjugated secondary antibody (1:15,000; Bio-Rad). Peroxide activity was detected using the enhanced chemiluminescence Supersignal West Dura system (Pierce, Rockford, Ill.). Mouse anti-actin antibody at a concentration of 1:1500 was used as a loading control. Peptide competitions and lambda phosphatase treatment were performed as described above.
The utility of these antibodies for evaluating the relationship between ligand binding and CXCR4 function is dependent upon their ability to distinguish a ligand activated form of the receptor. Serum starvation increased CXCL12 responsiveness (data not shown), and for all of these experiments LN428 GBM cells were serum starved for 24 hours prior to CXCL12 treatment. Serum starved LN428 cells were treated with 1 μg/ml CXCL12 for 0 or 10 minutes and the abundance of phospho-CXCR4 was determined by western blot and immuno-localization in fixed cells. […] A similar CXCL12-induced increase in P339-CXCR4 (FIG. 3B), but not P338-CXCR4 (data not shown) immunoreactivity was seen by immunofluorescent analysis of paraformaldehyde fixed cells. After 10 minutes of exposure to CXCL12, P339-CXCR4 can be seen localized to the surface of LN428 cells (FIG. 3B). CXCL12 was then washed away and cells were incubated in its absence for an additional 20 minutes. Surface labeling declined as a function of time and P339-CXCR4 was seen accumulating intracellularly.
Whether this is the only kinase that can phosphorylate these residues is unclear. The observation that protein kinase C (PKC) stimulated CXCR4 internalization also depends upon phosphorylation of this region of the molecule raises the question of whether these sites might also be PKC phosphorylation sites (17, 19, 27, 28). […]

[2] = 1 μg/ml CXCL12, 4 μM PMA or 10 nM EGF

P338 phosphorylation stimulated (CXCR4; [2]): not | P339 phosphorylation (CXCR4; [2]): stimulated | P338-CXCR4 levels after treatment (CXCR4; 1 μg/ml CXCL12, 10 minutes, serum starved LN428 cells): unaffected
Substance: CXCL12: chemokine ligand of CXCR4 (Peprotech)
decrease in proliferation (S+G2-M) (Nf1+/+ astrocytes): 6% | increase in apoptosis (sub-G0) (Nf1+/+ astrocytes): 38+/−8% | increase in cell number [1]: greater than 2 fold | increase in cell number ([1]; serum-free): greater than 200%
